A short description of data set [1]: Example 2B: similar metabolism analysis of further deuterated ibogaine analogs. In kind it is in vitro ADME. The note with it: present tense, no data. How it is done: A similar analysis is performed with each of CD2HO-ibogamine, CDH2O-ibogamine, CD3CD2O-ibogamine, CD3CH2O-ibogamine, CH3CD2O-ibogamine and CH3CDHO-ibogamine.
A short description of data set [2]: Metabolic stability and noribogaine formation in rat liver microsomes (RLM). Conditions: for Percentage turnover of test compounds (percent remaining): 10 μM, +NADPH. Here is the method: (§1) Metabolism Studies. Metabolic stability of test compounds was evaluated in liver microsomes from rat (RLM) and human (HLM). This was accomplished by incubating test compounds with microsomes and monitoring disappearance of parent compound as well as metabolite formation over time using LC-MS/MS in Multiple Reaction Monitoring mode (MRM).
(§2) Stock solutions of test compounds were prepared in DMSO at a concentration of 10 mM.
(§3) Total Incubation volume: 100 μL
(§4) Compound concentration: 10 μM
(§5) Protein Concentration: 0.5 mg/mL (0.25 mg/mL for positive controls)
(§6) From the above mix, 70 PL was added to individual wells of 96 well reaction plates and pre-incubated at 37° C. for 5 min. […] Reactions without NADPH and buffer controls (minus NADPH) at 0 min and 60 min were also incubated to rule out non-NADPH metabolism or chemical instability in the incubation buffer. All reactions were terminated using 100 μL of ice-cold acetonitrile containing internal standard (glipizide) at 0, 5, 15, 30 and 60 min.
(§7) Stock solution of noribogaine was prepared in DMSO at a concentration of 20 mM and serially diluted in DMSO to prepare 10, 3, 1, 0.3, 0.1 and 0.03 mM solutions respectively.
(§8) Samples were monitored for parent compounds disappearance and formation of metabolite in MRM mode using LC-MS/MS instrument (API-4000 with Waters UPLC).
(§9) The percent remaining of test compounds and positive control in each sample was determined by considering peak area ratio in the 0 minute sample as 100%.
(§10) In vitro intrinsic clearance (CL′int) (units in mL/min/kg) was calculated using the formula: […]
(§11) For human, monkey, dog, rat and mouse the liver weight are 20 gm, 32 gm, 32 gm, 40 gm and 90 gm respectively.
(In general: Liver microsomes are a subcellular fraction often used to study metabolism.)

The nature of another data set: in vitro. Here is the method: as §1, §2, §3, §4, §5, §6, §7, §8, §9, §10, §11
The nature of data set [3]: Buffer control for chemical instability in the incubation buffer. In kind it is physicochemical. Conditions: Kphos buffer pH 7.4, 37° C., no microsomes, minus NADPH.
Data set [4] in a line: Plasma pharmacokinetics and brain distribution in male Wistar rats after a single intraperitoneal dose. Conditions: for AUC(0-t) / Cmax / Tmax: ip, 40 mg/kg; for AUC(0-t): AUClast. Here is the method: Formulation strengths for intraperitoneal administration was 4 mg/mL. A weighed quantity of compound was combined with an appropriate volume of vehicle (10% ethanol and 90% normal saline), the mixture was warmed to 55° C. and vortexed until a clear yellowish solution was obtained. The dosing volume administered was 10 mL/kg for intraperitoneal route.
Healthy male Wistar rats (8-12 weeks old) weighing between 280 to 300 g were procured from Global, India. Three rats were housed in each cage. […] Temperature and humidity were recorded by auto-controlled data logger system. All the animals were provided laboratory rodent diet (Envigo Research private Ltd, Hyderabad). Reverse osmosis water treated with ultraviolet light was provided ad libitum.
Blood samples (approximately 120 μL) were collected under light isoflurane anesthesia from retro orbital plexus from a set of three rats at specified time intervals. Samples were collected into labeled micro-tubes, containing K2EDTA solution (10 μL of 20% K2EDTA of solution per mL of blood) as an anticoagulant. Plasma was immediately harvested from the blood by centrifugation at 4000 rpm for 10 min at 4±2° C. and stored below −70±10° C. until bioanalysis.
Immediately, after blood collection animals were euthanized with excess CO2 and brain was isolated at each time point. Brain was rinsed three times in ice cold PBS (for 5-10 seconds/rinse using ˜5-10 mL fresh PBS in disposable petri dish for each rinse) and dried on blotting paper. Brain samples were homogenized using ice-cold phosphate buffer saline (pH 7.4) and homogenates were stored below −70±10° C. until analysis. Total homogenate volume was three times the tissue weight.
The extraction procedure for plasma and brain samples and the spiked plasma and brain calibration standards were identical: A 25 PL of study sample or spiked plasma and brain calibration standard was added to individual pre-labeled micro-centrifuge tubes followed by 100 PL of internal standard prepared in Acetonitrile (Glipizide, 500 ng/mL) was added except for blank, where 100 μL of Acetonitrile was added. Samples were vortexed for 5 minutes and then centrifuged for 10 minutes at a speed of 4000 rpm at 4° C. Following centrifugation, 100 μL of clear supernatant was transferred to a 96 well plate and analyzed using LC-MS/MS.
Non-compartmental analysis tool of Phoenix WinNonlin® (Version 7.0) was used to assess the pharmacokinetic parameters. Peak plasma concentrations (Cmax) and time for the peak plasma concentrations (Tmax) were the observed values. The areas under the concentration time curve (AUClast and AUCinf) were calculated by linear trapezoidal rule. The terminal elimination rate constant, ke was determined by regression analysis of the linear terminal portion of the log plasma concentration-time curve.

[5] abbreviates: 0.08 h after CD3O-ibogamine 40 mg/kg i.p.
The mark [6] stands for this setting: 0.08 h after ibogaine 40 mg/kg i.p.
[7] abbreviates: 0.5 h after CD3O-ibogamine 40 mg/kg i.p.
[8] abbreviates: 0.5 h after ibogaine 40 mg/kg i.p.
[9] abbreviates: 1 h after CD3O-ibogamine 40 mg/kg i.p.
Where [10] appears, read: 1 h after ibogaine 40 mg/kg i.p.
Setting [11] is: 2 h after CD3O-ibogamine 40 mg/kg i.p.
Setting [12] is: 2 h after ibogaine 40 mg/kg i.p.
Setting [13] is: 3 h after CD3O-ibogamine 40 mg/kg i.p.
The mark [14] stands for this setting: 3 h after ibogaine 40 mg/kg i.p.
Setting [15] is: male, Wistar, rat, in vivo, plasma, analyte after CD3O-ibogamine 40 mg/kg i.p.
The mark [16] stands for this setting: male, Wistar, rat, in vivo, plasma, analyte after ibogaine 40 mg/kg i.p.
The mark [17] stands for this setting: male, Wistar, rat, in vivo, brain, analyte after CD3O-ibogamine 40 mg/kg i.p.
Where [18] appears, read: male, Wistar, rat, in vivo, brain, analyte after ibogaine 40 mg/kg i.p.

In general, AUC(0-t) refers to the area under the concentration-time curve up to a stated or last time point. A higher AUC(0-t) goes with more exposure. In general, Cmax refers to the highest concentration seen after dosing. For orientation: Tmax means the time from dosing to the highest level.

With `[2H]C([2H])(C)Oc1ccc2[nH]c3c(c2c1)CCN1CC2CC(CC)C1C3C2` (stereo not drawn) [CH3CD2O-ibogamine], in data set [1], the “degradation compared to ibogaine” value is “at least as fast or faster than ibogaine” and the “formation of noribogaine compared to that of ibogaine” value is on record as “as fast or slower”.
For `CCOc1ccc2[nH]c3c(c2c1)CCN1C[C@H]2C[C@H](CC)C1[C@H]3C2` [EtO-Ibogamine, 10-ethoxy-ibogamine], the “CLh, int” value turned out to be 445 mL/min/kg in data set [2] (RLM) and 13 mL/min/kg in “in vitro” (human, pH 7.4). Further, the “Percentage turnover of test compounds (percent remaining)” value in data set [2] (RLM, 0 min) was determined as 100%; in data set [2] (RLM, 5 min), 77%; in data set [2] (RLM, 15 min), 42%; in data set [2] (RLM, 30 min), 3%; in data set [2] (RLM, 60 min) it was 0%; in the data set “in vitro” (human, microsomes, 0 h, pH 7.4) it was 100%. Besides, the “Percentage turnover of test compounds (percent remaining)” value in “in vitro” (human, microsomes, 5 min, pH 7.4) is given as 103%; in “in vitro” (human, microsomes, 0.5 h, pH 7.4), 85%; in “in vitro” (human, microsomes, 1 h, pH 7.4), 66%; in “in vitro” (human, microsomes, […], pH 7.4), 98%. Besides, the “% Remaining at 60 min (+NADPH)” value came to 0% in data set [2] (RLM, summary) and 66% in “in vitro” (human, microsomes, 1 h, pH 7.4). The “% Remaining at 60 min (−NADPH)” value was found to be 88% in data set [2] (RLM, without NADPH) and 106% in the data set “in vitro” (human, microsomes, 1 h, pH 7.4). The half-life at 10 μM in data set [2] (male, rat, microsomes, pH 7.4) amounted to 6 min. In addition, the half-life in “in vitro” (human, microsomes, pH 7.4) was greater than 1 h. The “rate of conversion of the compound compared to that of ibogaine” value in “in vitro” (liver microsomes, species not given) is reported as “essentially the same”. The “% Remaining at 60 min (Buffer)” value in data set [3] is listed as 88%.
`[2H]C([2H])([2H])C([2H])([2H])Oc1ccc2[nH]c3c(c2c1)CCN1CC2CC(CC)C1C3C2` (stereo not drawn) [CD3CD2O-ibogamine]: in data set [1], the “degradation compared to ibogaine” value is “at least as fast or faster than ibogaine” and the “formation of noribogaine compared to that of ibogaine” value is listed as “as fast or slower”.
On to `CCC1CC2CC3c4[nH]c5ccc(O)cc5c4CCN(C2)C13` (stereo not drawn) [Noribogaine], for which the Mean brain concentration is 2997 ng/g in data set [4] (setting [5]); 2383 ng/g in data set [4] (setting [6]); 10413 ng/g in data set [4] (setting [7]); 14563 ng/g in data set [4] (setting [8]); 13254 ng/g in data set [4] (setting [9]); 17727 ng/g in data set [4] (setting [10]). In addition, the Mean brain concentration in data set [4] (setting [11]) was 14940 ng/g; in data set [4] (setting [12]), 11692 ng/g; in data set [4] (setting [13]), 10509 ng/g; in data set [4] (setting [14]), 10540 ng/g; in data set [4] (male, Wistar, rat, in vivo) it was 17341 ng/g. For the same compound, the Mean plasma concentration in data set [4] (setting [5]) worked out at 208 ng/mL; in data set [4] (setting [6]), 312 ng/mL; in data set [4] (setting [7]), 677 ng/mL; in data set [4] (setting [8]), 1179 ng/mL; in data set [4] (setting [9]), 736 ng/mL; in data set [4] (setting [10]) it was 1455 ng/mL. The Mean plasma concentration in data set [4] (setting [11]) worked out at 690 ng/mL; in data set [4] (setting [12]), 846 ng/mL; in data set [4] (setting [13]) it was 584 ng/mL; in data set [4] (setting [14]), 861 ng/mL; in data set [4] (male, Wistar, rat, in vivo), 871 ng/mL. Besides, the AUClast in data set [4] (brain, analyte after CD3O-ibogamine 40 mg/kg i.p.) was 36953.27 ng·h/g; in data set [4] (brain, analyte after ibogaine 40 mg/kg i.p.), 39658.47 ng·h/g. Further, the AUC(0-t) stood at 1970 ng·h/mL in data set [4] (setting [15]) and 3030 ng·h/mL in data set [4] (setting [16]). The Cmax worked out at 14900 ng/g in data set [4] (setting [17]), 17700 ng/g in data set [4] (setting [18]), 736 ng/mL in data set [4] (setting [15]) and 1460 ng/mL in data set [4] (setting [16]). The Tmax is 2 h in data set [4] (setting [17]), 1 h in data set [4] (setting [18]), 1 h in data set [4] (setting [15]) and 1 h in data set [4] (setting [16]).
Consider `[2H]C([2H])([2H])COc1ccc2[nH]c3c(c2c1)CCN1CC2CC(CC)C1C3C2` (stereo not drawn) [CD3CH2O-ibogamine], for which, in data set [1], the “degradation compared to ibogaine” value is on record as “at least as fast or faster than ibogaine” and the “formation of noribogaine compared to that of ibogaine” value is reported as “as fast or slower”.
Turning to `[2H]COc1ccc2[nH]c3c(c2c1)CCN1CC2CC(CC)C1C3C2` (stereo not drawn) [CDH2O-ibogamine], in data set [1], the “degradation compared to ibogaine” value is listed as “at least as fast or faster than ibogaine” and the “formation of noribogaine compared to that of ibogaine” value was “as fast or slower”.
Taken in the same sequence, the figures for `[2H]C([2H])Oc1ccc2[nH]c3c(c2c1)CCN1CC2CC(CC)C1C3C2` (stereo not drawn) [CD2HO-ibogamine] were “at least as fast or faster than ibogaine” and “as fast or slower”.
Taken in the same sequence, the figures for `[2H]C(C)Oc1ccc2[nH]c3c(c2c1)CCN1CC2CC(CC)C1C3C2` (stereo not drawn) [CH3CDHO-ibogamine] were “at least as fast or faster than ibogaine” and “as fast or slower”.

(Values after patent US12564597B2 (priority 2020, dated 2026).)
